{"source": "paper PMC12064818", "about": "“A general assay platform to study protein pharmacology using ligand-dependent structural dynamics” (Nature Communications, 2025)", "target": "firefly luciferase (FLuc) (Photinus pyralis, UniProt P08659)", "sequence (P08659 whole entry)": "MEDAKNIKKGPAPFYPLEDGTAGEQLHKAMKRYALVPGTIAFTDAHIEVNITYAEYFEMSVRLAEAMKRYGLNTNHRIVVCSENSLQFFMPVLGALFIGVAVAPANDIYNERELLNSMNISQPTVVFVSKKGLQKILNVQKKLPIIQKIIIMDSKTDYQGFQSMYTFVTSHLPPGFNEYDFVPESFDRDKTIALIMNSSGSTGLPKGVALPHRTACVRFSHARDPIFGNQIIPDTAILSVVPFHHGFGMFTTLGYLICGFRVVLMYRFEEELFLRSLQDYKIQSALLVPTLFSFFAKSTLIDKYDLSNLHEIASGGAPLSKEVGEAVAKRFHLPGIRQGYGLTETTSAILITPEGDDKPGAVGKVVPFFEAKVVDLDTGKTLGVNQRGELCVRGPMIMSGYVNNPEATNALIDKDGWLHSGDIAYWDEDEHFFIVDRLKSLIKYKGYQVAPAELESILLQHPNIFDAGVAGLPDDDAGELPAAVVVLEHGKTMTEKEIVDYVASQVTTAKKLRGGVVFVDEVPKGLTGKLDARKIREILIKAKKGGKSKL", "assay": "Thermal shift profiles (Thermofluor assay), FLuc;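 for Thermofluor FLuc, No ATP: normalized first derivative of fluorescence (dF/dT) at the stated temperature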", "assay_type": "binding", "parameters": "unit of the concentration uncertain", "conditions": "compound 100 (unit uncertain); for Thermofluor FLuc, ATP: ATP (2 (unit uncertain))"}
{"molecule": "COc1ccc(NC(=O)C2CCN(C(=O)c3ncn4c3COC(c3ccccc3)C4)CC2)cc1Cl", "note": "(centres unmarked) [NCGC 00449919]", "values": [{"measurement": "Thermofluor FLuc, No ATP", "setting": "20.000 °C", "result": 0.250}, {"measurement": "Thermofluor FLuc, ATP", "setting": "20.000 °C", "result": 0.934}, {"measurement": "Thermofluor FLuc, No ATP", "setting": "20.993 °C", "result": 0.185}, {"measurement": "Thermofluor FLuc, ATP", "setting": "20.993 °C", "result": 0.955}, {"measurement": "Thermofluor FLuc, No ATP", "setting": "21.987 °C", "result": 0.201}, {"measurement": "Thermofluor FLuc, ATP", "setting": "21.987 °C", "result": 0.975}, {"measurement": "Thermofluor FLuc, No ATP", "setting": "22.980 °C", "result": 0.152}, {"measurement": "Thermofluor FLuc, ATP", "setting": "22.980 °C", "result": 0.992}, {"measurement": "Thermofluor FLuc, No ATP", "setting": "23.974 °C", "result": 0.098}, {"measurement": "Thermofluor FLuc, ATP", "setting": "23.974 °C", "result": 1}, {"measurement": "Thermofluor FLuc, No ATP", "setting": "24.967 °C", "result": 0.101}, {"measurement": "Thermofluor FLuc, ATP", "setting": "24.967 °C", "result": 0.999}, {"measurement": "Thermofluor FLuc, No ATP", "setting": "25.960 °C", "result": 0.104}, {"measurement": "Thermofluor FLuc, ATP", "setting": "25.960 °C", "result": 0.991}, {"measurement": "Thermofluor FLuc, No ATP", "setting": "26.954 °C", "result": 0.059}, {"measurement": "Thermofluor FLuc, ATP", "setting": "26.954 °C", "result": 0.977}, {"measurement": "Thermofluor FLuc, No ATP", "setting": "27.947 °C", "result": 0.054}, {"measurement": "Thermofluor FLuc, ATP", "setting": "27.947 °C", "result": 0.961}, {"measurement": "Thermofluor FLuc, No ATP", "setting": "28.940 °C", "result": 0.030}, {"measurement": "Thermofluor FLuc, ATP", "setting": "28.940 °C", "result": 0.943}, {"measurement": "Thermofluor FLuc, No ATP", "setting": "29.934 °C", "result": 0.043}, {"measurement": "Thermofluor FLuc, ATP", "setting": "29.934 °C", "result": 0.925}, {"measurement": "Thermofluor FLuc, No ATP", "setting": "30.927 °C", "result": 0.015}, {"measurement": "Thermofluor FLuc, ATP", "setting": "30.927 °C", "result": 0.906}, {"measurement": "Thermofluor FLuc, No ATP", "setting": "31.921 °C", "result": 0.031}, {"measurement": "Thermofluor FLuc, ATP", "setting": "31.921 °C", "result": 0.886}, {"measurement": "Thermofluor FLuc, No ATP", "setting": "32.914 °C", "result": 0.002}, {"measurement": "Thermofluor FLuc, ATP", "setting": "32.914 °C", "result": 0.862}, {"measurement": "Thermofluor FLuc, No ATP", "setting": "33.907 °C", "result": 0.008}, {"measurement": "Thermofluor FLuc, ATP", "setting": "33.907 °C", "result": 0.832}, {"measurement": "Thermofluor FLuc, No ATP", "setting": "34.901 °C", "result": 0.005}, {"measurement": "Thermofluor FLuc, ATP", "setting": "34.901 °C", "result": 0.793}, {"measurement": "Thermofluor FLuc, No ATP", "setting": "35.894 °C", "result": 0.014}, {"measurement": "Thermofluor FLuc, ATP", "setting": "35.894 °C", "result": 0.741}, {"measurement": "Thermofluor FLuc, No ATP", "setting": "36.887 °C", "result": 0.000}, {"measurement": "Thermofluor FLuc, ATP", "setting": "36.887 °C", "result": 0.675}, {"measurement": "Thermofluor FLuc, No ATP", "setting": "37.881 °C", "result": 0.036}, {"measurement": "Thermofluor FLuc, ATP", "setting": "37.881 °C", "result": 0.591}, {"measurement": "Thermofluor FLuc, No ATP", "setting": "38.874 °C", "result": 0.034}, {"measurement": "Thermofluor FLuc, ATP", "setting": "38.874 °C", "result": 0.492}, {"measurement": "Thermofluor FLuc, No ATP", "setting": "39.868 °C", "result": 0.075}, {"measurement": "Thermofluor FLuc, ATP", "setting": "39.868 °C", "result": 0.38}, {"measurement": "Thermofluor FLuc, No ATP", "setting": "40.861 °C", "result": 0.126}, {"measurement": "Thermofluor FLuc, ATP", "setting": "40.861 °C", "result": 0.264}, {"measurement": "Thermofluor FLuc, No ATP", "setting": "41.854 °C", "result": 0.197}, {"measurement": "Thermofluor FLuc, ATP", "setting": "41.854 °C", "result": 0.155}, {"measurement": "Thermofluor FLuc, No ATP", "setting": "42.848 °C", "result": 0.295}, {"measurement": "Thermofluor FLuc, ATP", "setting": "42.848 °C", "result": 0.067}, {"measurement": "Thermofluor FLuc, No ATP", "setting": "43.841 °C", "result": 0.412}, {"measurement": "Thermofluor FLuc, ATP", "setting": "43.841 °C", "result": 0.013}, {"measurement": "Thermofluor FLuc, No ATP", "setting": "44.835 °C", "result": 0.542}, {"measurement": "Thermofluor FLuc, ATP", "setting": "44.835 °C", "result": 0}, {"measurement": "Thermofluor FLuc, No ATP", "setting": "45.828 °C", "result": 0.677}, {"measurement": "Thermofluor FLuc, ATP", "setting": "45.828 °C", "result": 0.03}, {"measurement": "Thermofluor FLuc, No ATP", "setting": "46.821 °C", "result": 0.764}, {"measurement": "Thermofluor FLuc, ATP", "setting": "46.821 °C", "result": 0.099}, {"measurement": "Thermofluor FLuc, No ATP", "setting": "47.815 °C", "result": 0.849}, {"measurement": "Thermofluor FLuc, ATP", "setting": "47.815 °C", "result": 0.195}, {"measurement": "Thermofluor FLuc, No ATP", "setting": "48.808 °C", "result": 0.904}, {"measurement": "Thermofluor FLuc, ATP", "setting": "48.808 °C", "result": 0.306}, {"measurement": "Thermofluor FLuc, No ATP", "setting": "50.795 °C", "result": 0.949}, {"measurement": "Thermofluor FLuc, ATP", "setting": "50.795 °C", "result": 0.532}, {"measurement": "Thermofluor FLuc, No ATP", "setting": "51.788 °C", "result": 1.000}, {"measurement": "Thermofluor FLuc, ATP", "setting": "51.788 °C", "result": 0.632}, {"measurement": "Thermofluor FLuc, ATP", "setting": "52.782 °C", "result": 0.721}, {"measurement": "Thermofluor FLuc, No ATP", "setting": "53.775 °C", "result": 1.000}, {"measurement": "Thermofluor FLuc, ATP", "setting": "53.775 °C", "result": 0.796}, {"measurement": "Thermofluor FLuc, No ATP", "setting": "54.768 °C", "result": 0.991}, {"measurement": "Thermofluor FLuc, ATP", "setting": "54.768 °C", "result": 0.857}, {"measurement": "Thermofluor FLuc, No ATP", "setting": "55.762 °C", "result": 0.972}, {"measurement": "Thermofluor FLuc, ATP", "setting": "55.762 °C", "result": 0.903}, {"measurement": "Thermofluor FLuc, No ATP", "setting": "56.755 °C", "result": 0.954}, {"measurement": "Thermofluor FLuc, ATP", "setting": "56.755 °C", "result": 0.933}, {"measurement": "Thermofluor FLuc, No ATP", "setting": "57.748 °C", "result": 0.930}, {"measurement": "Thermofluor FLuc, ATP", "setting": "57.748 °C", "result": 0.95}, {"measurement": "Thermofluor FLuc, No ATP", "setting": "58.742 °C", "result": 0.908}, {"measurement": "Thermofluor FLuc, ATP", "setting": "58.742 °C", "result": 0.958}, {"measurement": "Thermofluor FLuc, No ATP", "setting": "59.735 °C", "result": 0.892}, {"measurement": "Thermofluor FLuc, ATP", "setting": "59.735 °C", "result": 0.959}, {"measurement": "Thermofluor FLuc, No ATP", "setting": "60.729 °C", "result": 0.925}, {"measurement": "Thermofluor FLuc, ATP", "setting": "60.729 °C", "result": 0.959}, {"measurement": "Thermofluor FLuc, No ATP", "setting": "61.722 °C", "result": 0.872}, {"measurement": "Thermofluor FLuc, ATP", "setting": "61.722 °C", "result": 0.958}, {"measurement": "Thermofluor FLuc, No ATP", "setting": "62.715 °C", "result": 0.877}, {"measurement": "Thermofluor FLuc, ATP", "setting": "62.715 °C", "result": 0.96}, {"measurement": "Thermofluor FLuc, No ATP", "setting": "63.709 °C", "result": 0.837}, {"measurement": "Thermofluor FLuc, ATP", "setting": "63.709 °C", "result": 0.963}, {"measurement": "Thermofluor FLuc, No ATP", "setting": "65.695 °C", "result": 0.837}, {"measurement": "Thermofluor FLuc, ATP", "setting": "65.695 °C", "result": 0.975}, {"measurement": "Thermofluor FLuc, No ATP", "setting": "66.689 °C", "result": 0.789}, {"measurement": "Thermofluor FLuc, ATP", "setting": "66.689 °C", "result": 0.981}, {"measurement": "Thermofluor FLuc, No ATP", "setting": "68.676 °C", "result": 0.772}, {"measurement": "Thermofluor FLuc, ATP", "setting": "68.676 °C", "result": 0.992}, {"measurement": "Thermofluor FLuc, No ATP", "setting": "69.669 °C", "result": 0.774}, {"measurement": "Thermofluor FLuc, ATP", "setting": "69.669 °C", "result": 0.996}, {"measurement": "Thermofluor FLuc, No ATP", "setting": "70.662 °C", "result": 0.720}, {"measurement": "Thermofluor FLuc, ATP", "setting": "70.662 °C", "result": 0.998}, {"measurement": "Thermofluor FLuc, No ATP", "setting": "71.656 °C", "result": 0.708}, {"measurement": "Thermofluor FLuc, ATP", "setting": "71.656 °C", "result": 0.999}, {"measurement": "Thermofluor FLuc, No ATP", "setting": "72.649 °C", "result": 0.718}, {"measurement": "Thermofluor FLuc, ATP", "setting": "72.649 °C", "result": 0.999}, {"measurement": "Thermofluor FLuc, No ATP", "setting": "73.643 °C", "result": 0.669}, {"measurement": "Thermofluor FLuc, ATP", "setting": "73.643 °C", "result": 0.998}, {"measurement": "Thermofluor FLuc, No ATP", "setting": "74.636 °C", "result": 0.675}, {"measurement": "Thermofluor FLuc, ATP", "setting": "74.636 °C", "result": 0.997}, {"measurement": "Thermofluor FLuc, No ATP", "setting": "75.629 °C", "result": 0.640}, {"measurement": "Thermofluor FLuc, ATP", "setting": "75.629 °C", "result": 0.995}]}
